Data on 1 molecule can be found in patent US4304715A, “Enkephalin analogues” (priority 1979, dated 1981).

For one experiment, the system named is rat brain membranes. The experiment is described as follows: Radio receptor assay (R.R.A.), an opiate binding assay: displacement of tritiated naloxone from rat brain membranes. To be noted: based on concentration required to displace 50% of (3H)naloxone (1nM) from rat brain membranes; pH 7.4, 15 minutes, bacitracin; Met Enkephalin = 100%.
The subject of the next experiment is mouse vas deferens. The following applies: inhibition of electrically induced contractions, Met Enkephalin = 100%.

Molecules are shown by their SMILES.

Experimental for mouse vas deferens: (ii) M.V.D. stands for mouse vas deferens
were performed as described in the literature

Take `CSCC[C@H](NC(=O)[C@H](Cc1ccccc1)NC(=O)CNC(=O)CCCC(N)Cc1ccc(O)cc1)C(N)=O` (stereo partly drawn) [Analogue H211, 5-Amino-6-(4'-hydroxyphenyl)-hexanoyl-glycyl-L-phenylalanyl-L-methionine amide]: in the experiment on rat brain membranes, the “Activity Relative to Met Enkephalin R.R.A.” value is recorded as 9%. In addition, the “Activity Relative to Met Enkephalin M.V.D.” value in the experiment with mouse vas deferens stood at 0.9%.
